According to publication PMC13288968 (ACS chemical neuroscience, 2026):
Several values for one entry are separate records, joined by “and”; a condition that tells them apart may be missing. Equal entries are not always repeated.

T1: ΔFOSB bound to genomic DNA in hippocampus of APP mice (Mus musculus, UniProt P13346)
T1 sequence (P13346 1-237 isoform P13346-2): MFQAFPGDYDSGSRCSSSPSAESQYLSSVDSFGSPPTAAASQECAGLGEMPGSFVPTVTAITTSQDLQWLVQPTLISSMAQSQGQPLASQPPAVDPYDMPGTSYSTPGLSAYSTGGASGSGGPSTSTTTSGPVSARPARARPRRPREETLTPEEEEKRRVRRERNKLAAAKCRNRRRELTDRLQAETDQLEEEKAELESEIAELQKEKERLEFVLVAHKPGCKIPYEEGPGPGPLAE

T2: ΔFOSB/JUND bZIP redox switch (ΔFOSB Cys172/JUND Cys285) (Mus musculus, UniProt P13346)
T2 sequence (P13346 153-219 isoform P13346-2): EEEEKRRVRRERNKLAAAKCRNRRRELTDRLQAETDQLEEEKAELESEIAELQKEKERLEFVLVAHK
T2 sequence (P15066 260-326 partner limits assumed): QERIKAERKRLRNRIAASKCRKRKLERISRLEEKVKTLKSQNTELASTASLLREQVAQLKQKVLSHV

T3: ΔFOSB (full-length);JUND (full-length) (mouse;mouse, UniProt P13346-2;P15066 2-237;2-341, |)
T3 sequence 1: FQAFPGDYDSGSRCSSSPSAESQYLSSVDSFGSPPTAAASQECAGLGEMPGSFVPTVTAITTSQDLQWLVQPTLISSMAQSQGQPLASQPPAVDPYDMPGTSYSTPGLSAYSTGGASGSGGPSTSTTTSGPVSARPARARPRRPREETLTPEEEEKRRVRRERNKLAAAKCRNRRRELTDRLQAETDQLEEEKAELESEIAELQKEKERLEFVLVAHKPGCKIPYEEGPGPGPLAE
T3 sequence 2: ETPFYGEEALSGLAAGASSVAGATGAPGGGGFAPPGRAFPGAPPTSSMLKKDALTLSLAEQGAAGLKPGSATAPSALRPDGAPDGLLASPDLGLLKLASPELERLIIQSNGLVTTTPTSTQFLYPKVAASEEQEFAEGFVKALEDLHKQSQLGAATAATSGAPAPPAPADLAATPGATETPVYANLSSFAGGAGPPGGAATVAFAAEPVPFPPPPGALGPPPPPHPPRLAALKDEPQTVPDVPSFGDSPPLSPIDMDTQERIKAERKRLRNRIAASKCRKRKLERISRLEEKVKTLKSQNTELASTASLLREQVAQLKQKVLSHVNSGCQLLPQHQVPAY

T4: ΔFOSB homomer (full-length) (mouse, UniProt P13346-2 2-237)
T4 sequence: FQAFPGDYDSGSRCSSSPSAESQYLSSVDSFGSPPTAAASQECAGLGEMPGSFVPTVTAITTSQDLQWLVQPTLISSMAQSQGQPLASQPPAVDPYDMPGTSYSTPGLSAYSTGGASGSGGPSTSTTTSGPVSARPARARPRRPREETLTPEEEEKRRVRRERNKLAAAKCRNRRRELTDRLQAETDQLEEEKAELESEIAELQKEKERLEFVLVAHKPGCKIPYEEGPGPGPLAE


Experiments:
[1] = target: T1, ΔFOSB bound to genomic DNA in hippocampus of APP mice; settings: three days into the dorsal hippocampus of APP mice; cited from earlier work
[2] = target: T2, ΔFOSB/JUND bZIP redox switch (ΔFOSB Cys172/JUND Cys285); experiment: Redox switch closure of ΔFOSB/JUND bZIP assessed by non-reducing SDS-PAGE; type: biochemical
[3] = target: T3, ΔFOSB (full-length);JUND (full-length); experiment: fluorescence polarization
[4] = target: T4, ΔFOSB homomer (full-length); experiment: fluorescence polarization

| Molecule | reduction in number of ΔFOSB-bound AP-1 sites (CUT&RUN) [1] | effect on closure of the redox switch under oxidation ([2]; 500 μM compound, 100 μM diamide, non-reducing SDS-PAGE) | promotion of oxidation / redox switch closure by compound alone ([2]; 0.5 mM compound, no diamide, SDS-PAGE) | binding result [3] | binding result [4] |
| --- | --- | --- | --- | --- | --- |
| NC1=NN(c2ccc(Oc3ccccc3)c(S(=O)(=O)O)c2)C(=O)C1 [JPC0661] | 60% and ~ 60% | None of the three compounds (YL0441, JPC0661, and QB0365) prevented closure of the redox switch | did not oxidize the protein to induce closure of the redox switch | – | – |
| TMR-cdk5 (cdk5 oligo) (dsDNA) DNA 1: CGTCGGTGACTCAAAACAC DNA 2: GTGTTTTGAGTCACCGACG | – | – | – | binds | binds |
